Test results taken from patent US7504537B2, “Hydroxamic acid derivative and MMP inhibitor containing the same as active ingredient” (Dainippon Sumitomo Pharma Co., Ltd., priority 2001, dated 2009).

Tested on: Adjuvant Arthritis
Assay: Test 7 Adjuvant arthritis (in vivo)
Design: species or system rat
Conditions: Lewis male rats, 50 mg/kg per os once a day for twelve days
Source text: Test 7 Adjuvant Arthritis (in vivo) For this test Lewis male rats were used. The suspension prepared by suspending Mycobacterium butyricum in liquid paraffin in concentration of 0.5% was subcutaneously injected in a right hind paw. Ten days later the rats in which the definite secondary inflammation on a left hind paw was observed were selected, and to the rats the compound (Example 2) suspended in 0.5% methyl cellulose was orally administered for twelve successive days once a day. Five hours later after finishing administration the volume of the hind paws was compared with the volume when the administration was initiated, and the inhibition activity of edema was evaluated based on this difference.

CC(C)CN(C1(C(=O)NO)CCCC1)S(=O)(=O)c1ccc(Oc2ccc(S(C)(=O)=O)cc2)cc1 [Example 2, N-hydroxy 1-[isobutyl({4-[4-(methylsulfonyl)phenoxy]phenyl}sulfonyl)amino]cyclopentanecarboxamide]
Increase of edema, Non injected limb (control 1.07 ± 0.31): 0.74 ± 0.16 mL
Increase of edema, Injected limb (control −0.24 ± 0.45): -1.06 ± 0.47 mL
